This is an account of results in ChEMBL document CHEMBL1795209, “1-Chloro-2-formyl indenes and tetralenes as antitubercular agents” (Bioorg Med Chem Lett, 2011).

Data set [1] deals with Mycobacterium tuberculosis. Description: Antitubercular activity against Mycobacterium tuberculosis H37Rv at 500 ug/ml by Bactec 460 method. The class given is functional, organism-based.
Data set [2] concerns Mycobacterium tuberculosis. Briefly: Antitubercular activity against Mycobacterium tuberculosis H37Rv by Bactec 460 method. In kind it is functional.
Data set [3] deals with Mus musculus. Briefly: Acute toxicity in Swiss albino mouse assessed as observational changes at 5 to 300 mg/kg, po administered as single dose. The class given is organism-based. Also noted: dose 5-300 mg/kg, route oral. As to conditions: in vivo.
For data set [4], the system named is Mus musculus. Description: Acute toxicity in Swiss albino mouse assessed as morbidity at 5 to 300 mg/kg, po administered as single dose. In kind it is organism-based. Also noted: dose 5-300 mg/kg, route oral. As to conditions: in vivo.
Data set [5] relates to Mus musculus. Description: Acute toxicity in Swiss albino mouse assessed as mortality at 5 to 300 mg/kg, po administered as single dose. Also on record: dose 5-300 mg/kg, route oral. In kind it is organism-based. As to conditions: in vivo.
In data set [6] the test system is Mus musculus. Briefly: Acute toxicity in Swiss albino mouse assessed as change in total RBC at 5 to 300 mg/kg, po administered as single dose. As to conditions: in vivo. The class given is organism-based. Also noted: dose 5-300 mg/kg, route oral.
The test system of data set [7] is Mus musculus. Briefly: Acute toxicity in Swiss albino mouse assessed as change in total WBC count at 5 to 300 mg/kg, po administered as single dose. In kind it is organism-based. Also noted: dose 5-300 mg/kg, route oral. As to conditions: in vivo.
Data set [8] relates to Mus musculus. Description: Acute toxicity in Swiss albino mouse assessed as change in differential leukocyte count at 5 to 300 mg/kg, po administered as single dose. The class given is organism-based. Also on record: dose 5-300 mg/kg, route oral. As to conditions: in vivo.
Data set [9] concerns Mus musculus. Description: Acute toxicity in Swiss albino mouse assessed as change in hemoglobin level at 5 to 300 mg/kg, po administered as single dose. As to conditions: in vivo. In kind it is organism-based. Also on record: dose 5-300 mg/kg, route oral.
Data set [10] deals with Mus musculus. Description: Acute toxicity in Swiss albino mouse assessed as change in serum total cholesterol level at 5 to 300 mg/kg, po administered as single dose. Also on record: dose 5-300 mg/kg, route oral. As to conditions: in vivo. In kind it is organism-based.
Data set [11] relates to Mus musculus. Briefly: Acute toxicity in Swiss albino mouse assessed as change in triglyceride level at 5 to 300 mg/kg, po administered as single dose. In kind it is organism-based. Also noted: dose 5-300 mg/kg, route oral. As to conditions: in vivo.
The test system of data set [12] is Mus musculus. Description: Acute toxicity in Swiss albino mouse assessed as change in creatinine level at 5 to 300 mg/kg, po administered as single dose. The class given is organism-based. Also on record: dose 5-300 mg/kg, route oral. As to conditions: in vivo.
The subject of data set [13] is Mus musculus. Description: Acute toxicity in Swiss albino mouse assessed as change in SGPT level at 5 to 300 mg/kg, po administered as single dose. The class given is organism-based. Also on record: dose 5-300 mg/kg, route oral. As to conditions: in vivo.
For data set [14], the system named is Mus musculus. Description: Acute toxicity in Swiss albino mouse assessed as change in SGOT level at 5 to 300 mg/kg, po administered as single dose. In kind it is organism-based. Also on record: dose 5-300 mg/kg, route oral. As to conditions: in vivo.
Data set [15] relates to Mus musculus. Description: Acute toxicity in Swiss albino mouse assessed as change in absolute and relative weight of the organs at 5 to 300 mg/kg, po administered as single dose. In kind it is organism-based. Also noted: dose 5-300 mg/kg, route oral. As to conditions: in vivo.
Data set [16] in a line: Acute toxicity in po dosed Swiss albino mouse administered as single dose. In kind it is organism-based. As to conditions: in vivo.

SMILES strings stand for the structures. ≈ marks a conversion by molar mass, not a printed value. Calls of active or inactive are those of the source.

On to `COc1ccc2c(c1)C(Cl)=C(C=O)C1C2CC[C@@]2(C)C1CC[C@@H]2OC(C)=O` (some centres not stated), for which, in [1], the result was inactive.

Take `COc1cc(C2C(C=O)=C(Cl)c3cc(OC)c(OC)c(OC)c32)cc(OC)c1OC` (configuration not stated): the result in data set [1] was inactive.

By MIC is commonly meant the smallest concentration in the dilution series that meets the test's criterion for growth inhibition. `COc1ccc2c(c1)CCC(C=O)=C2Cl`: the MIC in data set [2] stood at 125 µg/mL (≈ 561 µM).

The molecule `COc1ccc2c(c1)CCC(OC=O)=C2Cl` showed a minimum inhibitory concentration (MIC) in [2] of 30 µg/mL (≈ 126 µM). The Activity result in the data set on Mus musculus [3], in the data set on Mus musculus [4], in the data set on Mus musculus [5], in the data set on Mus musculus [6], in the data set with Mus musculus [7] and with Mus musculus [8] was “Non-toxic” each time. Besides, the Activity entry with Mus musculus [9], with Mus musculus [10], with Mus musculus [11], in the data set on Mus musculus [12], in the data set on Mus musculus [13] and in the data set on Mus musculus [14] was “Non-toxic” each time. Also, in the data set on Mus musculus [15], the Activity entry was “Non-toxic”. Also, in data set [16], the MTD came to 300 mg/kg.

On to `CO[C@H]1/C=C/O[C@@]2(C)Oc3c(C)c(O)c4c(O)c(c(/C=N/N5CCN(C)CC5)c(O)c4c3C2=O)NC(=O)/C(C)=C\C=C\[C@H](C)[C@H](O)[C@@H](C)[C@@H](O)[C@@H](C)[C@H](OC(C)=O)[C@@H]1C` [RIFAMPIN], for which, in data set [2], the MIC was 2 µg/mL (≈ 2.43 µM).

As to `O=CC1=C(Cl)c2ccccc2C1c1ccccc1` (configuration not stated), 250 µg/mL (≈ 981 µM) was the least that counted as inhibitory in data set [2] (MIC).

`COc1cc2c(cc1C=O)C=CCC2` showed an MIC in [2] of 500 µg/mL (≈ 2660 µM).

`COc1ccc2c(c1)CCCC2OC(C)=O` (configuration not stated) had an MIC in [2] of 30 µg/mL (≈ 136 µM).

Regarding `CO[C@H]1CCC(=O)c2cccc(O)c21`, inhibition of growth in data set [2] (MIC) required 6.25 µg/mL (≈ 32.5 µM).

Consider `O=CC1=C(Cl)c2ccccc2CC1`, for which the minimal inhibitory concentration (MIC) in data set [2] turned out to be 60 µg/mL (≈ 311 µM).

`O=Cc1cc2ccccc2c(Cl)c1C=O`: the lowest concentration to inhibit growth in data set [2] (MIC) was 500 µg/mL (≈ 2290 µM).

Turning to `Cc1cc(O)c2c(c1)[C@H](O)CCC2=O` [SHINANOLONE], the lowest concentration to inhibit growth in data set [2] (MIC) was 100 µg/mL (≈ 520 µM).

For `O=CC1=C(Cl)c2ccc(Cl)cc2C1`, it took 125 µg/mL (≈ 587 µM) to inhibit growth in [2] (MIC).

The molecule `Cc1ccc2c(c1)CC(C=O)=C2Cl` registered an MIC in data set [2] of 250 µg/mL (≈ 1300 µM).

In the case of `COc1ccc2c(c1)CCCC2`, it took 125 µg/mL (≈ 771 µM) to inhibit growth in data set [2] (MIC).

Take `COc1ccc2c(c1)CCCC2O` (configuration not stated): in [1], the result was inactive.

Consider `COc1ccc2c(c1)CCC/C2=N\O`, for which the minimum inhibitory concentration (MIC) in data set [2] was found to be 500 µg/mL (≈ 2610 µM).

With `CC1CC(C=O)=C(Cl)c2ccccc21` (configuration not stated), the MIC in data set [2] was found to be 125 µg/mL (≈ 605 µM).

The molecule `CN[C@@H]1[C@H](O[C@H]2[C@H](O[C@H]3[C@H](O)[C@@H](O)[C@H](N=C(N)N)[C@@H](O)[C@@H]3N=C(N)N)O[C@@H](C)[C@]2(O)C=O)O[C@@H](CO)[C@H](O)[C@H]1O` [STREPTOMYCIN] displayed an MIC in data set [2] of 2 µg/mL (≈ 3.44 µM).

`COc1ccc2c(c1)CCC(CO)=C2Cl`: in [2], the minimum inhibitory concentration (MIC) was 500 µg/mL (≈ 2230 µM).

In [2], `Cc1cccc2c1C(Cl)=C(C=O)C2` gave a minimal inhibitory concentration (MIC) of 125 µg/mL (≈ 649 µM).

`O=CC1=C(Cl)c2cc3c(cc2C1)OCO3` had an MIC in data set [2] of 125 µg/mL (≈ 561 µM).

Take `COc1ccc2c(c1)CC(C=O)=C2Cl`: in data set [2], the MIC came to 125 µg/mL (≈ 599 µM).
